The target in one test is T1, 5-lipoxygenase (Homo sapiens, UniProt P09917).
T1 construct: Human polymorphonuclear (PMN) leukocytes (neutrophils) are obtained from normal healthy volunteers; endogenous in cells; host or cells: human polymorphonuclear leukocytes (neutrophils) from blood of healthy volunteers
T1 sequence (P09917 1-674): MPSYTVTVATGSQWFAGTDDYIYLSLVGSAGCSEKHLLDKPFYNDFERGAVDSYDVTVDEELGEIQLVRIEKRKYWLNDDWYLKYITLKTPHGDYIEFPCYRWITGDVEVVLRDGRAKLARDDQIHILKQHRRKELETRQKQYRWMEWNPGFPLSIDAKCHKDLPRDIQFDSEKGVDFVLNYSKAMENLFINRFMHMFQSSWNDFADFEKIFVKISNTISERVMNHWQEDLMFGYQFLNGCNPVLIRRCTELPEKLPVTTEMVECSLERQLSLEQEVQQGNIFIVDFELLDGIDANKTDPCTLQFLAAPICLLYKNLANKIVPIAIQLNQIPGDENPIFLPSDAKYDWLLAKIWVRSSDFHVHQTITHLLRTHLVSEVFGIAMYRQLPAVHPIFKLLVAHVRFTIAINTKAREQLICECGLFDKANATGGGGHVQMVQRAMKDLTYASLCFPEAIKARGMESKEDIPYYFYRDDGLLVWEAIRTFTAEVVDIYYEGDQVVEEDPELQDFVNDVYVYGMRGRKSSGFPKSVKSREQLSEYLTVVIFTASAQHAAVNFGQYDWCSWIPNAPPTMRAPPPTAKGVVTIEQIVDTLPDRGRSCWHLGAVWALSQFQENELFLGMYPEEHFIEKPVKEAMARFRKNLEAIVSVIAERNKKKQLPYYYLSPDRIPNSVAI
As to the kind of experiment: 5-Lipoxygenase Assay in human polymorphonuclear (PMN) leukocytes, 5-HETE production. The test is classed as cell-based. The protocol:
Human polymorphonuclear (PMN) leukocytes (neutrophils) are obtained from normal healthy volunteers by venipuncture and collected with heparin anticoagulant. Neutrophils are isolated by Dextran/Ficol sedimentation as described (Billah et al, J. Biol. Chem. 260, 6899-6906 (1985)). In brief, 30 ml of blood is mixed with 5 ml of dextran (Sigma) solution and kept at 37° C. for 30 min. The upper white cellrich layer is removed and 10 ml is layered on 9 ml of Ficol-Paque solution (Pharmacia) and centrifuged at 280×g for 10 min. at 5° C. The supernatant is removed and the neutrophil pellet is resuspended in HEPES buffer containing 25 mM N-2-hydroxyethylpiperazine-N^1 -2 ethanesulfonic acid(HEPES), 125 mM NaCl, 2.5 mM KCL, 0.7 mM MgCl2, 0.5 mM and 10 mM glucose at pH 7.4. The red cells in the suspension are lysed by hypotonic shock. The neutrophils are washed by centrifugation in HEPES buffer two times and finally resuspended at a concentration of 20×10^6 cells/ml in the presence of 1 mM CaCl2.
Neutrophils (0.2 ml of suspension) are preincubated with dimethylsulfoxide (DMSO) vehicle with or without test compound (1 ul) for 4 minutes then incubated for 5 minutes with ^14 C-arachidonic acid (Amersham, 59 Ci/mole) at a 9 uM final concentration, and the calcium ionophore A23187 (Calbiochem) at a 1 uM final concentration. These stimulants are added in 10 ul of water:ethanol (9:1). The reaction is stopped by addition of methanol (0.4 ml), and cellular debris is removed by centrifugation. Aliquots (100 ul) of the incubations are run on a Waters two pump high performance liquid chromatography (HPLC) system fitted with a DuPont Zorbax ODS, 5 u, 4×80 […] Reliance Cartridge column and C18 "Guard Pak". The column is initially eluted at 2 ml/min with 80 percent of the mixture water:methanol:acetic acid (46:54:0.08) containing 1 mM EDTA adjusted to pH 6.0 with ammonium hydroxide (Pump A) and 20% methanol (Pump B). At 10 minutes, a linear gradient is established. to reach 100 percent methanol (Pump B) at 27 minutes. Between 27 and 28 minutes, methanol is exchanged for the initial eluting solvent and by 35 minutes the column is reequilibrated for the next sample. The effluent is analyzed by a continuous flow radioactivity monitor (model ROMONA-D) interfaced with a Hewlett Packard Lab Automation System for quantitation of radioactive products. This includes the major 5-lipoxygenase product, 5-hydroxyeicosatetraenoic acid (5-HETE) which elutes at 20 minutes. The results with and without test compound are used to calculate percent inhibition of 5-HETE production.

The next test concerns the target T2, cyclooxygenase (Homo sapiens, UniProt P23219).
T2 construct: Cyclooxygenase Assay with Human Platelets; endogenous in cells; host or cells: human blood platelets from healthy volunteers
Put plainly: Cyclooxygenase Assay with Human Platelets, HHT production. The class given is cell-based. Conditions: for % inhibition of HHT production in human platelets at 50 µM / % inhibition of HHT production in human platelets at 15 µM: read-out: PMN Assay % Inhibition HHT. The protocol: Cyclooxygenase Assay with Human Platelets
Blood is collected in acid-citrate-dextrose anticoagulant by venipuncture from normal healthy volunteers who said that they were not on any medication for the previous two weeks. Platelets are isolated by the procedure of Okuma and Uchino (Blood 54:1258-1271 (1979)). In brief, blood is centrifuged at 4° C. at 200×g for 10 minutes to sediment red and white cells. The platelet rich plasma (PRP) supernatant is removed and mixed with one-tenth volume of 77 mM EDTA, pH 7.2 and prostacyclin sodium salt is added to the PRP at a final concentration of 1 nanogram per milliliter(ng/mL). The PRP is centrifuged at 1700×g, 4° C. for 15 minutes. The platelet pellet is resuspended in the HEPES buffer described in the 5-lipoxygenase section above which additionally contained 1 ng/mL prostacyclin and 0.5 mM ethylene glycolbis(B-aminoethyl ether) N,N,N',N'-tetraacetic acid (EGTA) and the suspension is recentrifuged at 1,700×g, 4° C. for 15 minutes. The pellet is resuspended in HEPES buffer containing 0.5 mM EGTA and 1.5 mM CaCl2 at a cell count of 200,000 cells/ul. Platelets (0.2 ml of suspension) are preincubated with test compounds and the ^14 C-arachidonic acid plus the calcium ionophore A23187 stimulant exactly as described for the 5-lipoxygenase assay. The cyclooxygenase product 12-hydroxyheptadecatrienoic acid (HHT) is isolated and quantitated by the HPLC system used for the 5-lipoxygenaseassay. HHT elutes from this system at about eleven minutes. Results are expressed as percent inhibition of HHT production by the test compounds versus the test vehicle alone.

T2 sequence (P23219 24-599): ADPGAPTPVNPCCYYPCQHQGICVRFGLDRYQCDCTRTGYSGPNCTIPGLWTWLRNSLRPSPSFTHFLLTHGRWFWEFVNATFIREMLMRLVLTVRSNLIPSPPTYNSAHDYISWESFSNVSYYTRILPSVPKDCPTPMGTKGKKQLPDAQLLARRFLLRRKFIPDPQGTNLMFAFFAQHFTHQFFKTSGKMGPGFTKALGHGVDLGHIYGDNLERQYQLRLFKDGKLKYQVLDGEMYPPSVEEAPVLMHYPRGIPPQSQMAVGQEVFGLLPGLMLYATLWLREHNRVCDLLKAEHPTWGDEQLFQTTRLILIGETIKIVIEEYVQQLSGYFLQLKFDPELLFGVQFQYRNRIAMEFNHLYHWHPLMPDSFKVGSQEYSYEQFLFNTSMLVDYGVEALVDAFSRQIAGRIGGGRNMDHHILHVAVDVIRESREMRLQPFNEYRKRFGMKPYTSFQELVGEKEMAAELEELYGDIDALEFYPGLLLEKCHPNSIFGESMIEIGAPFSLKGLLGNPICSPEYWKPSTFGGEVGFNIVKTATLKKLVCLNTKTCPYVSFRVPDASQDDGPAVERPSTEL

`CN1C(=O)C(Sc2ccccc2)c2cccnc21` (stereo not drawn) [Compound 17, 1,3-dihydro-1-methyl-3-(phenylthio)-2H-pyrrolo[2,3-b]pyridin-2-one] displayed an inhibition at 50 µM on 5-lipoxygenase (50 μM) of 63%. At cyclooxygenase, the % inhibition of HHT production in human platelets at 50 µM turned out to be 21%.
For `O=C1C(Sc2ccc(Cl)cc2)c2cccnc2N1c1ccccc1` (stereo not drawn) [Compound 19, 1,3-dihydro-3-(4-chlorophenylthio)-1-phenyl-2H-pyrrolo[2,3-b]pyridin-2-one], in that order: 91% and 71%.
The compound `CC1(Sc2ccccc2)C(=O)N(c2ccccc2)c2ncccc21` (stereo not drawn) [Compound 16, 1,3-dihydro-3-methyl-1-phenyl-3-(phenylthio)-2H-pyrrolo[2,3-b]pyridin-2-one] displayed an inhibition at 50 µM at 5-lipoxygenase (50 μM) of 68%. The % inhibition of HHT production in human platelets at 50 µM on cyclooxygenase worked out at 2%.
On 5-lipoxygenase (50 μM), `COc1ccccc1SC1C(=O)N(c2ccccc2)c2ncccc21` (stereo not drawn) [Compound 22, 1,3-dihydro-3-(2-methoxyphenylthio)-1-phenyl-2H-pyrrolo[2,3-b]pyridin-2-one] showed an inhibition at 50 µM of 84%. Besides, at cyclooxygenase, the % inhibition of HHT production in human platelets at 50 µM stood at 31%.
For `O=C1C(Sc2ccccc2Cl)c2cccnc2N1c1ccccc1` (stereo not drawn) [Compound 20, 1,3-dihydro-3-(2-chlorophenylthio)-1-phenyl-2H-pyrrolo[2,3-b]pyridin-2-one], in that order: 90% and 80%.
`O=C1C(Sc2ccccc2)c2cccnc2N1c1ccc(Cl)c(Cl)c1` (stereo not drawn) [Compound 34, 1,3-dihydro-1-(3,4-dichlorophenyl)-3-(phenylthio)[2,3-b]pyridin-2-one]: on 5-lipoxygenase (15 μM), at 15 µM the inhibition was 99%. Also, on cyclooxygenase (15 μM), the % inhibition of HHT production in human platelets at 15 µM was found to be 54%.
As to `COc1c(Sc2ccccc2)c2cccnc2n1-c1ccccc1` [Compound 35, 2-methoxy-1-phenyl-3-(phenylthio)-1H-pyrrolo[2,3-b]pyridine], the “inhibition of 5-HETE in the PMN assay” value on 5-lipoxygenase (concentration not given) is 80%. Further, the “% inhibition of HHT production in human platelets” value at cyclooxygenase (concentration not given) amounted to 55%.
On 5-lipoxygenase (15 μM), `O=C1C(Sc2ccccc2)c2cccnc2N1c1ccccc1` (stereo not drawn) [Compound 11, 1,3-dihydro-1-phenyl-3-(phenylthio)-2H-pyrrolo[2,3-b]pyridin-2-one] yielded an inhibition at 15 µM of 67%. On cyclooxygenase (15 μM), the % inhibition of HHT production in human platelets at 15 µM is 23%.
On 5-lipoxygenase (50 μM), `O=C1C([S+]([O-])c2ccccc2)c2cccnc2N1c1cccc(C(F)(F)F)c1` (stereo not drawn) [Compound 13, 1,3-dihydro-3-(phenylsulfinyl)-1-(3-trifluoromethylphenyl)-2H-pyrrolo[2,3-b]pyridin-2-one] registered an inhibition at 50 µM of 82%. The % inhibition of HHT production in human platelets at 50 µM at cyclooxygenase was found to be 44%.
For `CC(C)N1C(=O)C(Sc2ccccc2)c2cccnc21` (stereo not drawn) [Compound 14, 1,3-dihydro-1-(methylethyl)-3-(phenylthio)-2H-pyrrolo[2,3-b]pyridin-2-one], in that order: 63% and 17%.
For `O=C1N(Cc2ccccc2)c2ncccc2C1(Sc1ccccc1)Sc1ccccc1` [Compound 26, 1,3-dihydro-3,3-(diphenylthio)-1-(phenylmethyl)-2H-pyrrolo[2,3-b]pyridin-2-one], at 5-lipoxygenase (15 μM), at 15 µM the inhibition was 96%. The % inhibition of HHT production in human platelets at 15 µM on cyclooxygenase (15 μM) is 11%.
For `O=C1C(Sc2ccccc2)c2cccnc2N1c1cccc(Cl)c1` (stereo not drawn) [Compound 33, 1,3-dihydro-1-(3-chlorophenyl)-3-(phenylthio)-2H-pyrrolo], in that order: 87% and 52%.
Compound `Cc1c(Cl)cccc1N1C(=O)C(Sc2ccccc2)c2cccnc21` (stereo not drawn) [Compound 18, 1,3-dihydro-1-(3-chloro-2-methylphenyl)-3-(phenylthio)-2H-pyrrolo[2,3-b]pyridin-2-one] returned an inhibition at 50 µM against 5-lipoxygenase (50 μM) of 86%. Further, the % inhibition of HHT production in human platelets at 50 µM on cyclooxygenase is 64%.
`CC(=O)OCCSC1(C(C)=O)C(=O)N(c2ccccc2)c2ncccc21` (stereo not drawn) [Compound 28, 1,3-dihydro-3-[2-(acetoxy)-ethylthio)-3-(1-oxoethyl)-1-phenyl-2H-pyrrolo[2,3-b]pyridin-2-one]: on 5-lipoxygenase (15 μM), the “PMN Assay % Inhibition 5-HETE” value is given as 96% and at 15 µM the inhibition was 80%. Besides, on cyclooxygenase (15 μM), the “% inhibition of HHT production in human platelets” value came out at 29% and the % inhibition of HHT production in human platelets at 15 µM amounted to 35%.
On to “1,3-dihydro-3-(2-methoxyphenylthio)-1-phenyl-2H-pyrrolo[2,3-b]pyridin-2-one [Compound 23]”, for which the “PMN Assay % Inhibition 5-HETE” value on 5-lipoxygenase (15 μM) is reported as 47%; at 5-lipoxygenase (50 μM), 81%. On cyclooxygenase (15 μM), the “% inhibition of HHT production in human platelets” value is listed as 49%.

A word on the inhibition: it is the drop in the measured response relative to a control, in per cent. Low readings indicate a weak effect, high ones a strong effect.

These data come from patent publication US5182289A, “Heterobicyclic compounds having antiinflammatory activity” (Schering Corporation, priority 1990, dated 1993).
